A value given as a limit tells only on which side of the number the result lay.

The record followed here is US20170208799A1, “SYNERGISTIC ANTIMICROBIAL COMPOSITION” (Dow Global Technologies LLC, priority 2014, published 2017).

Holding throughout (format): cell-based
Experiment [1] relates to Aerobic bacteria: Klebsiella pneumoniae (ATCC 8308), Bacillus subtilis (ATCC 8473), Pseudomonas aeruginosa (ATCC 15442), Staphylococcus aureus (ATCC 6538). Nature of the experiment: Synergy test in 96 well microtiter plate against aerobic bacteria. As to conditions: end point, 24 hours; for Aqucar TN-50 (ppm THNM) - QA: THNM alone. The protocol:
The synergism of the biocides combination of the present invention was determined using the method described by Kull, F. C, et al. in Applied Microbiology 9:538-541 (1961). […] If end point could not be established, the highest concentration of biocide tested will be used as the end point for the calculation and the SI will be recorded in “less than or <” values. […] The type of microorganisms used for the test inoculums, the matrix to support optimum microbial growth during the test period and the medium used to enumerate the microorganisms after specified contact time are summarized in Table 2. Mineral salts medium (MSM). The medium contains (in mg/l) the following components: FeCl3.6H2O (1); CaCl2.2H2O (10); MgSO4.7H2O (22.5); (NH4)2SO4 (40); KH2PO4 (10); K2HPO4 (25.5); Yeast Extract (10); and glucose (100). After all components are added to deionized water, the pH of the medium is adjusted to 7.5 before use. [table] Synergy tests of THNM alone and in combination with a second biocide against the different test microorganisms were conducted using standard 96 well microtiter plate assays. The test was carried out by adding 500 uL of matrix, 50 μl of tested organism and 50 μl of each biocide into wells of the microtiter plate. The final biocides and test inoculum concentrations in each well were established based on this total volume. For each experiment, the final concentration of the test organisms was in the range of 10^6 to 10^7 cfu/ml. The highest concentration of THNM and second biocide used in this synergy study was 250 and 100 or 50 ppm (depending on the efficacy of the active), respectively. Eight 2-fold dilutions of each biocide were prepared using an automated liquid handling system. The first biocide was added into the well plate horizontally and the second biocide is added after rotating the plate 90 degrees. Columns nine and ten were reserved for each individual biocide to be tested at each concentration level to achieve at least 4-log bacterial kill or 2-log bacterial count (defined as end point) for synergy index calculation. In case the end point was not achieved, the highest biocide concentration tested was used for synergy index calculation. Wells in Column 11 were used as positive controls; they contained only the media and the test organism. The plates were incubated at 25° C. for aerobic bacteria and 32° C. for anaerobic bacteria. Enumeration was performed 24 hours contact time by employing the MPN method. Numbers of surviving bacteria were determined by removing 20 uL of the cell suspension from each well and adding it into 180 ul of enumeration media (i.e., resazurin TSB plates) then serially dilute in a 96-well block. Plates were incubated for 48 hours or until growth is observed in the control wells.

Experiment [2] concerns Field isolate, Acid Producing bacteria (APB). Nature of the experiment: Synergy test in 96 well microtiter plate against anaerobic acid producing bacteria. Conditions: end point, Environmental isolate APB, 24 hours, 32° C.; for Aqucar TN-50 (ppm THNM) - QA: THNM alone. The protocol: The synergism of the biocides combination of the present invention was determined using the method described by Kull, F. C, et al. in Applied Microbiology 9:538-541 (1961). […] If end point could not be established, the highest concentration of biocide tested will be used as the end point for the calculation and the SI will be recorded in “less than or <” values. […] The type of microorganisms used for the test inoculums, the matrix to support optimum microbial growth during the test period and the medium used to enumerate the microorganisms after specified contact time are summarized in Table 2. Mineral salts medium (MSM No Nutrients). The medium contains (in mg/l) the following components: FeCl3.6H2O (1); CaCl2.2H2O (10); MgSO4.7H2O (22.5); (NH4)2SO4 (40); KH2PO4 (10); and K2HPO4 (25.5). After all components are added to deionized water, the pH of the medium is adjusted to 7.5 before use. [table] Synergy tests of THNM alone and in combination with a second biocide against the different test microorganisms were conducted using standard 96 well microtiter plate assays. The test was carried out by adding 500 uL of matrix, 50 μl of tested organism and 50 μl of each biocide into wells of the microtiter plate. The final biocides and test inoculum concentrations in each well were established based on this total volume. For each experiment, the final concentration of the test organisms was in the range of 10^6 to 10^7 cfu/ml. The highest concentration of THNM and second biocide used in this synergy study was 250 and 100 or 50 ppm (depending on the efficacy of the active), respectively. Eight 2-fold dilutions of each biocide were prepared using an automated liquid handling system. The first biocide was added into the well plate horizontally and the second biocide is added after rotating the plate 90 degrees. Columns nine and ten were reserved for each individual biocide to be tested at each concentration level to achieve at least 4-log bacterial kill or 2-log bacterial count (defined as end point) for synergy index calculation. In case the end point was not achieved, the highest biocide concentration tested was used for synergy index calculation. Wells in Column 11 were used as positive controls; they contained only the media and the test organism. The plates were incubated at 25° C. for aerobic bacteria and 32° C. for anaerobic bacteria. Enumeration was performed 24 hours contact time by employing the MPN method. Numbers of surviving bacteria were determined by removing 20 uL of the cell suspension from each well and adding it into 180 ul of enumeration media (i.e., resazurin TSB plates) then serially dilute in a 96-well block. Plates were incubated for 48 hours or until growth is observed in the control wells.

Experiment [3] has as its system Desulfuvibrio longus (D. longus). Nature of the experiment: Synergy test in 96 well microtiter plate against anaerobic sulfate reducing bacteria. As to conditions: end point, 32° C.; for Aqucar TN-50 (ppm THNM) - QA: THNM alone. As to the method:
The synergism of the biocides combination of the present invention was determined using the method described by Kull, F. C, et al. in Applied Microbiology 9:538-541 (1961). […] If end point could not be established, the highest concentration of biocide tested will be used as the end point for the calculation and the SI will be recorded in “less than or <” values. […] The type of microorganisms used for the test inoculums, the matrix to support optimum microbial growth during the test period and the medium used to enumerate the microorganisms after specified contact time are summarized in Table 2. SNF (per liter of deionized water): NaCl, 3.12 gm; NaHCO3 0.131 gm; Na2SO4 0.17 gm; 1% KCl Solution (in water) 4.77 g; 1% CaCl2 Solution (in water) 7.2 gm; 1% MgSO4 Solution (in water) 5.45 gm; 1% Na2CO3 Solution (in water) 4.39 gm. Adjust the pH to 7 before use. Modified Baar's medium (MB): MgSO4, 2 g/l; sodium citrate, 5 g/l; CaSO4, 1 g/l; NH4Cl, g/l; K2HPO4, 0.5 g/l; sodium lactate, 3.5 g/l; yeast extract, 1 g/l; Sodium thioglycolate 0. g/l. Fe(NH4)2(SO4)2 1 g/l, deionized water. Adjust the pH to 7.5 before sodium thioglycolate is added. [table] Synergy tests of THNM alone and in combination with a second biocide against the different test microorganisms were conducted using standard 96 well microtiter plate assays. The test was carried out by adding 500 uL of matrix, 50 μl of tested organism and 50 μl of each biocide into wells of the microtiter plate. The final biocides and test inoculum concentrations in each well were established based on this total volume. For each experiment, the final concentration of the test organisms was in the range of 10^6 to 10^7 cfu/ml. The highest concentration of THNM and second biocide used in this synergy study was 250 and 100 or 50 ppm (depending on the efficacy of the active), respectively. Eight 2-fold dilutions of each biocide were prepared using an automated liquid handling system. The first biocide was added into the well plate horizontally and the second biocide is added after rotating the plate 90 degrees. Columns nine and ten were reserved for each individual biocide to be tested at each concentration level to achieve at least 4-log bacterial kill or 2-log bacterial count (defined as end point) for synergy index calculation. In case the end point was not achieved, the highest biocide concentration tested was used for synergy index calculation. Wells in Column 11 were used as positive controls; they contained only the media and the test organism. The plates were incubated at 25° C. for aerobic bacteria and 32° C. for anaerobic bacteria. Enumeration was performed 24 hours contact time by employing the MPN method. Numbers of surviving bacteria were determined by removing 20 uL of the cell suspension from each well and adding it into 180 ul of enumeration media (i.e., resazurin TSB plates) then serially dilute in a 96-well block. Plates were incubated for 48 hours or until growth is observed in the control wells.

Take `O=[N+]([O-])C(CO)(CO)CO` [THNM, Tris(hydroxymethyl)nitromethane]: the “Aqucar TN-50 (ppm THNM) - QA” value is on record as more than 250 ppm in experiment [1] (Table 3, aerobic bacteria, 25° C.); more than 250 ppm in experiment [1] (Table 4, aerobic bacteria, 25° C.); more than 250 ppm in experiment [1] (Table 5, aerobic bacteria, 25° C.); more than 250 ppm in experiment [1] (Table 6); more than 250 ppm in experiment [2] (Table 11); more than 250 ppm in experiment [2] (Table 12). The “Aqucar TN-50 (ppm THNM) - QA” value in experiment [2] (Table 13) is listed as more than 250 ppm; in experiment [2] (Table 14), more than 250 ppm; in experiment [3] (Table 7, 24 hours) it was 250.00 ppm; in experiment [3] (Table 8, 24 hours) it was 250.00 ppm; in experiment [3] (Table 9, 24 hours), 250.00 ppm; in experiment [3] (Table 10, 24 hours), 250.00 ppm.
As to “Benzalkonium chloride (benzyl-C8-18-alkyldimethyl, chlorides) [BKC]”, the “Benzalkonium Chloride (ppm BKC) - QB” value in experiment [1] (BKC alone, aerobic bacteria, 25° C.) was more than 50 ppm. For the same molecule, the “BKC (ppm ADBAC) - QB” value in experiment [2] (BKC alone) worked out at 12.50 ppm; in experiment [3] (BKC alone, 24 hours), 3.13 ppm.
With “N-alkyl (50% C14, 40% C12, 10% C16) dimethylbenzyl ammonium Chloride [ADBAC]”, the “Maquat MC1412 (ppm ADBAC) - QB” value was more than 50 ppm in experiment [1] (ADBAC alone, aerobic bacteria, 25° C.); 12.5 ppm in experiment [2] (ADBAC alone); 6.25 ppm in experiment [3] (ADBAC alone, 24 hours).
